From patent US6610707B1, “Heterocyclic compounds as inhibitors of rotomase enzymes” (Pfizer Inc., priority 1998, dated 2003)

The compounds below were run against human recombinant FKBP-12 (Homo sapiens, UniProt P62942) (assay: coupled colorimetric PPIase (rotamase) assay, IC50 against FKBP-12). Conditions: human recombinant FKBP-12, substrate succinyl-AFPF-pNA, 10° C., pH 8.0.
Assay type: biochemical
From the text: The affinity of the compounds of the formula (I) for FKBP-12 can be determined in vitro in a coupled colorimetric PPlase assay using similar procedures to published methods (e.g. see Kofron, J. L., et al., Biochemistry, 1991, 30, 6127-6134, Zarnt, T., et al., Biochem. J. 1995, 305, 159-164, Holt, D. A., et al., J. Am. Chem. Soc., 1993,115, 9925-9938). In these methods, the cis-trans isomerisation of a hydrophobic amino acid-proline bond in a tetrapeptide substrate (e.g. the phenylalanine-proline bond in N-succinyl-ala-phepro-phe-p-nitroanilide [succinyl-AFPF-pNA]) can be determined by monitoring cleavage of pNA from the transPro-containing peptide by an excess of chymotrypsin.
The IC50 (the concentration of the compound of the formula (I) producing 50% inhibition) values were determined using the following assay methodology. Assay buffer (2.175 ml) (50 mM 4-(2-hydroxyethyl)-1-piperazineethanesulphonic acid (HEPES), 100 mM NaCl, 1 mM dithiothreitol (DTT), pH 8.0) is equilibrated to 10° C. in a cuvette. 12.5 μl of a solution of the present compound in DMSO, 250 μl of a 60 mg/ml solution of a-chymotrypsin in 1 mM aqueous hydrochloric acid and then 50 μl of a solution of human recombinant FKBP-12 (4.5 μM) in assay buffer are added and mixed. The reaction is initiated by addition of 12.5 μl of a solution of 20 mM succinyl-AFPF-pNA in DMSO. The absorbance at 390 nm is monitored for one minute collecting data every 0.25 second. Data are fitted with a first order rate equation with offset and the rate constant obtained corrected for the rate of uncatalysed isomerisation of the substrate. The rate constant determined at different inhibitor concentrations (10 nM to 100 μM) is expressed as % inhibition of the control rate constant. The IC50 is estimated using a nonlinear least squares curve fitting routine of the sigmoidal dose response data.

Sequence of human recombinant FKBP-12 (P62942 whole entry): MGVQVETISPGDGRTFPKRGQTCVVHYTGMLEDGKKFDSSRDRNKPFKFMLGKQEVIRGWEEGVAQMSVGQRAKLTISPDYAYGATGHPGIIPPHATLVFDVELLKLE

SMILES | IC50 [nM]
O=S(=O)(c1nc2ccccc2[nH]1)N1CCCC[C@H]1c1noc(Cc2ccccc2)n1 [Example 1, 1H-Benzo[d]imidazol-2-yl[(2S)-2-(5-benzyl-1,2,4-oxadiazol-3-yl)-1-piperidyl]sulfone] | 95
O=S(=O)(CC1CCCCC1)N1CCCC[C@H]1c1noc(COC2CCNCC2)n1 [Example 23, 3-[(2S)-1-Cyclohexylmethylsulfonyl-2-piperidyl]-5-[4-piperidyloxymethyl]-1,2,4-oxadiazole] | 336
CNCc1ccc(OCc2nc(C3CCCCN3S(=O)(=O)c3nc4ccccc4[nH]3)no2)cc1 (centres unmarked) [Example 14, N-[4-(3-[1-(1H-Benzo[d]imidazol-2-ylsulfonyl)-2-piperidyl]-1,2,4-oxadiazol-5-ylmethoxy)benzyl]-N-methylamine] | 91

Now from value to compound:

IC50 [nM] | SMILES
1670 | O=S(=O)(c1ccc(F)cc1)N1CCCC[C@H]1c1nnn(Cc2ccccc2)n1 [Example 43]
442 | O=S(=O)(c1nc2ccccc2[nH]1)N1CCCCC1c1noc(-c2ncccn2)n1 (centres unmarked) [Example 65]
81 | NCc1ccc(-c2nc([C@@H]3CCCCN3S(=O)(=O)CC3CCCCC3)no2)o1 [Example 25, [5-(3-(2S)-1-[(Cyclohexylmethyl)sulfonyl]-2-piperidyl-1,2,4-oxadiazol-5-yl)-2-furyl]methylamine]
2010 | O=S(=O)(c1ccc(F)cc1)N1CCCC[C@H]1c1nnc(CCc2ccccc2)o1 [Example 42]

Each compound was assayed against T1, human recombinant FKBP52 (Homo sapiens, UniProt Q02790) (assay: coupled colorimetric PPIase assay, Ki,app against FKBP52). Conditions: human recombinant FKBP52, substrate succinyl-ALPF-pNA, printed in the IC50 (nm) FKBP-12 column, read-out: Ki FKBP-52.
T1 sequence (Q02790 1-459): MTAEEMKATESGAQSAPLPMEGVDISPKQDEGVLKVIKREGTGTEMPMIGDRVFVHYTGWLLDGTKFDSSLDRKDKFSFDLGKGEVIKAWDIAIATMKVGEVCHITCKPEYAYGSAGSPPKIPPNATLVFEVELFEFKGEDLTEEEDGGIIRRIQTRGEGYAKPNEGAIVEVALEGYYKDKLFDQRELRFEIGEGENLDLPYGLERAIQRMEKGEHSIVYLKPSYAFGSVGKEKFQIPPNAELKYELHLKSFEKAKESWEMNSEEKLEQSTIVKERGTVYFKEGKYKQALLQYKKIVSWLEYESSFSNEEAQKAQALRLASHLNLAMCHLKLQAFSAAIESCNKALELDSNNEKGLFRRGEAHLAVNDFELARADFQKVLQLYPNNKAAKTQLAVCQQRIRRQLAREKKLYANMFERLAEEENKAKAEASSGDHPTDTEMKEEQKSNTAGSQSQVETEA
Assay type: biochemical

Ki [nM] | SMILES
685 | NCc1ccc(OCc2nc([C@@H]3CCCCN3S(=O)(=O)c3nc4ccccc4[nH]3)no2)cc1 [Example 11, 4-(3-[(2S)-1-(1H-Benzo[d]imidazol-2-ylsuffonyl)-2-piperidyl]-1,2,4-oxadiazol-5-ylmethoxy)benzylamine]
